Measurements as given in patent US20080145372A1, “Bioreductively-Activated Prodrugs” (ANGIOGENE, PHARMACEUTICALS LIMITED, priority 2004, published 2008).
Blank lines part the entries; values can stand above or below the compound they belong to.

How the values were obtained:
[1] = Pulse radiolysis: fragmentation of radical anions; details: prodrug 40 μM, N2O-saturated 50% aqueous 2-propanol, pH 7.4-9.0
Method: The rate of fragmentation of intermediate radical anions produced by one-electron reduction is an important determinant of bioreductive prodrug action and can be measured by pulse radiolysis. The magnitude of the rate constant of radical fragmentation indicates the ability of the prodrugs to deliver the drug under hypoxia. The radicals were generated by reduction of the parent prodrugs (40 μM) by the 2-propanol radical generated radiolytically in an N2O-saturated 50% aqueous 2-propanol buffered to pH 7.4-9.0 with potassium phosphate (4 mM). Experiments were performed with a 6 Me V linear accelerator to generate an electron pulse of around 500 ns.

Compound: O=C(Nc1ccn([C@@H]2O[C@H](CO)[C@@H](O)[C@@H]2O)c(=O)n1)OCc1ccc([N+](=O)[O-])cc1 [N^4-(4-nitrophenyl)methoxycarbonyl-1-β-D-arabinofuranosylcytosine, reference compound]
- First-order rate constant k for the decay of radical anions produced by pulse radiolysis [1]: too small to measure

- melting point: 144 to 148 °C
Compound: O=C(Nc1ccn([C@@H]2O[C@H](CO)[C@@H](O)C2(F)F)c(=O)n1)OCc1ccc([N+](=O)[O-])s1 [Example 6, N^4-(5-nitrothien-2-yl)methoxycarbonyl-2′,2′-difluoro-2′-deoxycytidine]
- First-order rate constant k for the decay of radical anions produced by pulse radiolysis [1]: 20 s⁻¹

Compound: Cn1c(COC(=O)Nc2ccn([C@@H]3O[C@H](CO)[C@@H](O)C3(F)F)c(=O)n2)cnc1[N+](=O)[O-] [Example 5, N^4-(2-nitro-1-methylimidazol-5-yl)methoxycarbonyl-2′,2′-difluoro-2′-deoxycytidine]
- First-order rate constant k for the decay of radical anions produced by pulse radiolysis [1]: 18 s⁻¹

Compound: O=C(Nc1ccn([C@@H]2O[C@H](CO)[C@@H](O)[C@@H]2O)c(=O)n1)OCc1ccc([N+](=O)[O-])s1 [Example 2, N^4-(5-nitrothien-2-yl)methoxycarbonyl-1-β-D-arabinofuranosylcytosine]
- First-order rate constant k for the decay of radical anions produced by pulse radiolysis [1]: 12 s⁻¹

Compound: O=C(Nc1ccn([C@@H]2O[C@H](CO)[C@@H](O)[C@@H]2O)c(=O)n1)OCc1ccc([N+](=O)[O-])o1 [Example 12, N^4-(5-nitrofuran-2-yl)methoxycarbonyl-1-β-D-arabinofuranosylcytosine]
- First-order rate constant k for the decay of radical anions produced by pulse radiolysis [1]: 5.5 s⁻¹

Compound: CC(OC(=O)Nc1ccn([C@@H]2O[C@H](CO)[C@@H](O)C2(F)F)c(=O)n1)c1ccc([N+](=O)[O-])s1 (stereo partly shown) [Example 3, N^4-(1-(5-nitrothien-2-yl)ethyl)oxycarbonyl-2′,2′-difluoro-2′-deoxycytidine]
- First-order rate constant k for the decay of radical anions produced by pulse radiolysis [1]: 102 s⁻¹

Compound: CC(OC(=O)Nc1ccn([C@@H]2O[C@H](CO)[C@@H](O)[C@@H]2O)c(=O)n1)c1ccc([N+](=O)[O-])cc1 (stereo partly drawn) [Example 11, N^4-(1-(4-nitrophenyl)ethoxycarbonyl)-1-β-D-arabinofuranosylcytosine]
- First-order rate constant k for the decay of radical anions produced by pulse radiolysis [1]: 0.4 s⁻¹

Compound: CC(=O)OC[C@H]1O[C@@H](n2ccc(NC(=O)OC(C)c3ccc([N+](=O)[O-])s3)nc2=O)[C@@H](OC(C)=O)[C@@H]1OC(C)=O (stereo partly drawn) [Example 4, Tri-O-acetyl-N^4-(1-(5-nitrothien-2-yl)ethyl)oxycarbonyl-1-β-D-arabinofuranosylcytosine]
- First-order rate constant k for the decay of radical anions produced by pulse radiolysis [1]: 245 s⁻¹

Compound: O=C(Nc1nc(F)nc2c1ncn2[C@@H]1O[C@H](CO)[C@@H](O)[C@@H]1O)OCc1ccc([N+](=O)[O-])s1 [Example 10, 2-fluoro-N^6-(5-nitrothien-2-yl)methoxycarbonyl-9-O-D-arabinofuranosyladenine]
- First-order rate constant k for the decay of radical anions produced by pulse radiolysis [1]: 144 s⁻¹

Compound: CC(=O)O[C@@H]1[C@H](OC(C)=O)[C@@H](C)O[C@H]1n1cc(F)c(NC(=O)OCc2ccc([N+](=O)O)s2)nc1=O [Example 9, 5′-Deoxy-2′,3′-di-O-acetyl-5-fluoro-N^4-((5-nitrothien-2-yl)methoxycarbonyl)cytidine]
- First-order rate constant k for the decay of radical anions produced by pulse radiolysis [1]: 22 s⁻¹

Compound: O=C(Nc1ncnc2c1ncn2[C@@H]1O[C@H](CO)[C@@H](O)[C@@H]1O)OCc1ccc([N+](=O)[O-])s1 [Example 8, N^6-(5-nitrothien-2-yl)methoxycarbonyl-9-β-D-arabinofuranosyladenine]
- First-order rate constant k for the decay of radical anions produced by pulse radiolysis [1]: 148 s⁻¹

Compound: CC(OC(=O)Nc1ccn([C@@H]2O[C@H](CO)[C@@H](O)[C@@H]2O)c(=O)n1)c1ccc([N+](=O)[O-])s1 (stereo partly drawn) [Example 1, N^4-(1-(5-nitrothien-2-yl)ethyl)oxycarbonyl-1-β-D-arabinofuranosylcytosine]
- First-order rate constant k for the decay of radical anions produced by pulse radiolysis [1]: 49 s⁻¹
